Test results published in PMC12473028, “Isolation and Biological Evaluation of Human Tyrosinase Inhibitors from the Fruit of Xanthium strumarium L” (Molecules, 2025).
Read-outs that look alike come from different tables or passages of the source. Each block holds one molecule with its values, some of them ahead of it.

Key:
Test in all cases: L-DOPA oxidation assay in MM418C1 cell lysate, single dose […] ([…] activity remaining)
Conditions in all cases: read-out: % activity remaining at 1 mg/mL
human tyrosinase (hsTYR) [1] = target: T1, human tyrosinase (hsTYR) (Homo sapiens, UniProt P14679); assay type: cell-free (cell lysate)
T1 construct: gene TYR
T1 sequence (P14679 19-529): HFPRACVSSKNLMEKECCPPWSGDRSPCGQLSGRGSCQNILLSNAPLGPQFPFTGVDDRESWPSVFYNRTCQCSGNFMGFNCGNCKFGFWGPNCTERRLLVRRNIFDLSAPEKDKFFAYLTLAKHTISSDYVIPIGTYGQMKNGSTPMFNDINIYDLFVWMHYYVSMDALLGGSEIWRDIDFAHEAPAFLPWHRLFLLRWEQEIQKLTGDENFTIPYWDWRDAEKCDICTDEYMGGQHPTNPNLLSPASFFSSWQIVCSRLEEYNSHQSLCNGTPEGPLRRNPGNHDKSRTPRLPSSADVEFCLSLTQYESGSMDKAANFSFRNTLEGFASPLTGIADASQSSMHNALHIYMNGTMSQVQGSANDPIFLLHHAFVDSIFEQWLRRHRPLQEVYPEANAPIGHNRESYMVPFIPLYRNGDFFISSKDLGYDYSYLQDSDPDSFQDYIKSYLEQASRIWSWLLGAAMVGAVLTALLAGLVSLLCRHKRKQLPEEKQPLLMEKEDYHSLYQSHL

human tyrosinase (hsTYR) [2] = target: T1, human tyrosinase (hsTYR); assay type: cell-free
human tyrosinase (hsTYR) [3] = target: T1, human tyrosinase (hsTYR); assay type: biochemical

remaining activity at 1000 µg/mL (human tyrosinase (hsTYR) [1]): 68.1%
SMILES: O=C(/C=C/c1ccc(O)c(O)c1)O[C@@H]1C[C@](O)(C(=O)O)C[C@@H](O)[C@H]1O [compound 7, 5-caffeoylquinic acid]

remaining activity at 1000 µg/mL (human tyrosinase (hsTYR) [2]): 76.9%
SMILES: CC1(C)C(CO[C@@H]2O[C@H](CO)[C@@H](O)[C@H](O)[C@H]2O)=CC(=O)C2=C1SCC(=O)N2 [compound 9, xanthiside]

remaining activity at 1000 µg/mL (human tyrosinase (hsTYR) [3]): 78.1%
SMILES: O=C(/C=C/c1ccc(O)c(O)c1)O[C@@H]1CC(OC(=O)/C=C/c2ccc(O)c(O)c2)(C(=O)O)C[C@@H](O)C1O (stereo partly drawn) [compound 11, 1,3-dicaffeoylquinic acid]
